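Five concentrations, 48 hours, 96-well plates. TGI marks complete inhibition of growth.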
Columns and labels:
Test in all cases: growth of human tumour cells (NCI), 48 h
K-562 leukemia = tested on: K-562 leukemia
EKVX NSCLC = tested on: EKVX NSCLC
SF-268 CNS = tested on: SF-268 CNS
PC-3 prostate = tested on: PC-3 prostate
NCI-H522 lung = tested on: NCI-H522 lung
RXF 393 renal = tested on: RXF 393 renal
NCI-H226 lung = tested on: NCI-H226 lung
T-47D breast = tested on: T-47D breast
DU-145 prostate = tested on: DU-145 prostate
MOLT-4 leukemia = tested on: MOLT-4 leukemia
KM12 colon = tested on: KM12 colon
NCI-H23 lung = tested on: NCI-H23 lung
HCT-15 colon = tested on: HCT-15 colon
ACHN renal = tested on: ACHN renal
SN12C renal = tested on: SN12C renal
MDA-MB-435 = tested on: MDA-MB-435
MALME-3M melanoma = tested on: MALME-3M melanoma
SK-MEL-5 melanoma = tested on: SK-MEL-5 melanoma
OVCAR-4 ovarian = tested on: OVCAR-4 ovarian
CCRF-CEM leukemia = tested on: CCRF-CEM leukemia
SK-MEL-2 melanoma = tested on: SK-MEL-2 melanoma
HT29 colon = tested on: HT29 colon
HS 578T breast = tested on: HS 578T breast
BT-549 breast = tested on: BT-549 breast
HL-60(TB) leukemia = tested on: HL-60(TB) leukemia
OVCAR-3 ovarian = tested on: OVCAR-3 ovarian
SNB-19 CNS = tested on: SNB-19 CNS
HCT-116 colon = tested on: HCT-116 colon
HCC-2998 colon = tested on: HCC-2998 colon
SF-295 CNS = tested on: SF-295 CNS
HOP-92 NSCLC = tested on: HOP-92 NSCLC
SR leukemia = tested on: SR leukemia
UO-31 renal = tested on: UO-31 renal
SNB-75 CNS = tested on: SNB-75 CNS
OVCAR-8 ovarian = tested on: OVCAR-8 ovarian
MCF7 breast = tested on: MCF7 breast
SW-620 colon = tested on: SW-620 colon
SF-539 CNS = tested on: SF-539 CNS
HOP-62 NSCLC = tested on: HOP-62 NSCLC
RPMI-8226 leukemia = tested on: RPMI-8226 leukemia
OVCAR-5 ovarian = tested on: OVCAR-5 ovarian
LOX IMVI melanoma = tested on: LOX IMVI melanoma
COLO 205 colon = tested on: COLO 205 colon
NCI-H460 lung = tested on: NCI-H460 lung
MDA-MB-231 breast = tested on: MDA-MB-231 breast
SK-MEL-28 melanoma = tested on: SK-MEL-28 melanoma
M14 melanoma = tested on: M14 melanoma
MDA-N = tested on: MDA-N
CAKI-1 renal = tested on: CAKI-1 renal
786-0 renal = tested on: 786-0 renal
NCI/ADR-RES ovarian = tested on: NCI/ADR-RES ovarian
A549 NSCLC = tested on: A549 NSCLC
UACC-257 melanoma = tested on: UACC-257 melanoma
IGROV1 ovarian = tested on: IGROV1 ovarian
U251 CNS = tested on: U251 CNS
TK-10 renal = tested on: TK-10 renal
SK-OV-3 ovarian = tested on: SK-OV-3 ovarian
A498 renal = tested on: A498 renal
UACC-62 melanoma = tested on: UACC-62 melanoma

`O=C(OCCNC(=O)N1CC1)OCCNC(=O)N1CC1` gave a TGI (K-562 leukemia) greater than 10 µM, a TGI (EKVX NSCLC) greater than 10 µM and a TGI (SF-268 CNS) greater than 10 µM. The TGI (PC-3 prostate) was greater than 10 µM, the TGI (NCI-H522 lung) was greater than 10 µM and the TGI (RXF 393 renal) was greater than 10 µM. The TGI (NCI-H226 lung) was greater than 10 µM, the TGI (T-47D breast) was greater than 10 µM and the TGI (DU-145 prostate) was greater than 10 µM. For the same compound, the TGI (MOLT-4 leukemia) was greater than 10 µM, the TGI (KM12 colon) was greater than 10 µM and the TGI (NCI-H23 lung) was greater than 10 µM. The TGI (HCT-15 colon) was greater than 10 µM, the TGI (ACHN renal) was greater than 10 µM and the TGI (SN12C renal) was greater than 10 µM. It also gave a TGI (MDA-MB-435) greater than 10 µM, a TGI (MALME-3M melanoma) greater than 10 µM and a TGI (SK-MEL-5 melanoma) greater than 10 µM. For the same compound, the TGI (OVCAR-4 ovarian) was greater than 10 µM, the TGI (CCRF-CEM leukemia) was greater than 10 µM and the TGI (SK-MEL-2 melanoma) was greater than 10 µM. It also gave a TGI (HT29 colon) greater than 10 µM, a TGI (HS 578T breast) greater than 10 µM and a TGI (BT-549 breast) greater than 10 µM. The TGI (HL-60(TB) leukemia) was greater than 10 µM, the TGI (OVCAR-3 ovarian) was greater than 10 µM and the TGI (SNB-19 CNS) was greater than 10 µM. It also gave a TGI (HCT-116 colon) greater than 10 µM, a TGI (HCC-2998 colon) greater than 10 µM and a TGI (SF-295 CNS) greater than 10 µM. The TGI (HOP-92 NSCLC) was greater than 10 µM, the TGI (SR leukemia) was greater than 10 µM and the TGI (UO-31 renal) was greater than 10 µM. For the same compound, the TGI (SNB-75 CNS) was greater than 10 µM, the TGI (OVCAR-8 ovarian) was greater than 10 µM and the TGI (MCF7 breast) was greater than 10 µM. It also gave a TGI (SW-620 colon) greater than 10 µM, a TGI (SF-539 CNS) greater than 10 µM and a TGI (HOP-62 NSCLC) greater than 10 µM. The TGI (RPMI-8226 leukemia) was greater than 10 µM, the TGI (OVCAR-5 ovarian) was greater than 10 µM and the TGI (LOX IMVI melanoma) was greater than 10 µM. The TGI (COLO 205 colon) was greater than 10 µM, the TGI (NCI-H460 lung) was greater than 10 µM and the TGI (MDA-MB-231 breast) was greater than 10 µM. The TGI (SK-MEL-28 melanoma) was greater than 10 µM, the TGI (M14 melanoma) was greater than 10 µM and the TGI (MDA-N) was greater than 10 µM. For the same compound, the TGI (CAKI-1 renal) was greater than 10 µM, the TGI (786-0 renal) was greater than 10 µM and the TGI (NCI/ADR-RES ovarian) was greater than 10 µM. It also gave a TGI (A549 NSCLC) greater than 10 µM, a TGI (UACC-257 melanoma) greater than 10 µM and a TGI (IGROV1 ovarian) greater than 10 µM. The TGI (U251 CNS) was greater than 10 µM, the TGI (TK-10 renal) was greater than 10 µM and the TGI (SK-OV-3 ovarian) was greater than 10 µM. The TGI (A498 renal) was greater than 10 µM and the TGI (UACC-62 melanoma) was greater than 10 µM.
For `CCOC(=O)/C=C(/C)Nc1nc2c(c(C(=O)OC)c1C#N)CCCC2`, the TGI (K-562 leukemia) was greater than 100 µM, the TGI (EKVX NSCLC) was greater than 100 µM and the TGI (SF-268 CNS) was greater than 100 µM. For the same compound, the TGI (PC-3 prostate) was greater than 100 µM, the TGI (NCI-H522 lung) was greater than 100 µM and the TGI (RXF 393 renal) was greater than 100 µM. For the same compound, the TGI (NCI-H226 lung) was greater than 100 µM, the TGI (T-47D breast) was greater than 100 µM and the TGI (DU-145 prostate) was greater than 100 µM. For the same compound, the TGI (MOLT-4 leukemia) was greater than 100 µM, the TGI (KM12 colon) was greater than 100 µM and the TGI (NCI-H23 lung) was greater than 100 µM. For the same compound, the TGI (HCT-15 colon) was greater than 100 µM, the TGI (ACHN renal) was greater than 100 µM and the TGI (SN12C renal) was greater than 100 µM. It also gave a TGI (MDA-MB-435) greater than 100 µM, a TGI (MALME-3M melanoma) greater than 100 µM and a TGI (SK-MEL-5 melanoma) greater than 100 µM. For the same compound, the TGI (OVCAR-4 ovarian) was greater than 100 µM, the TGI (CCRF-CEM leukemia) was greater than 100 µM and the TGI (SK-MEL-2 melanoma) was greater than 100 µM. It also gave a TGI (HT29 colon) greater than 100 µM, a TGI (HS 578T breast) greater than 100 µM and a TGI (BT-549 breast) greater than 100 µM. It also gave a TGI (HL-60(TB) leukemia) greater than 100 µM, a TGI (SNB-19 CNS) greater than 100 µM and a TGI (HCT-116 colon) greater than 100 µM. It also gave a TGI (HCC-2998 colon) greater than 100 µM, a TGI (SF-295 CNS) greater than 100 µM and a TGI (HOP-92 NSCLC) greater than 100 µM. It also gave a TGI (SR leukemia) greater than 100 µM, a TGI (UO-31 renal) greater than 100 µM and a TGI (OVCAR-8 ovarian) greater than 100 µM. It also gave a TGI (MCF7 breast) greater than 100 µM, a TGI (SW-620 colon) greater than 100 µM and a TGI (HOP-62 NSCLC) greater than 100 µM. It also gave a TGI (RPMI-8226 leukemia) greater than 100 µM, a TGI (OVCAR-5 ovarian) greater than 100 µM and a TGI (LOX IMVI melanoma) greater than 100 µM. For the same compound, the TGI (COLO 205 colon) was greater than 100 µM, the TGI (NCI-H460 lung) was greater than 100 µM and the TGI (MDA-MB-231 breast) was greater than 100 µM. It also gave a TGI (SK-MEL-28 melanoma) greater than 100 µM, a TGI (M14 melanoma) greater than 100 µM and a TGI (MDA-N) greater than 100 µM. For the same compound, the TGI (CAKI-1 renal) was greater than 100 µM, the TGI (786-0 renal) was greater than 100 µM and the TGI (NCI/ADR-RES ovarian) was greater than 100 µM. The TGI (A549 NSCLC) was greater than 100 µM, the TGI (UACC-257 melanoma) was greater than 100 µM and the TGI (IGROV1 ovarian) was greater than 100 µM. The TGI (U251 CNS) was greater than 100 µM, the TGI (TK-10 renal) was greater than 100 µM and the TGI (SK-OV-3 ovarian) was greater than 100 µM. The TGI (A498 renal) was greater than 100 µM and the TGI (UACC-62 melanoma) was greater than 100 µM.
In the case of `O=C(N/N=C/c1ccccc1)c1cccc2nc3ccccc3nc12`, the TGI (K-562 leukemia) is reported as greater than 100 µM, the TGI (EKVX NSCLC) is reported as greater than 100 µM and the TGI (SF-268 CNS) is reported as greater than 100 µM. The TGI (PC-3 prostate) was greater than 100 µM, the TGI (NCI-H522 lung) was greater than 100 µM and the TGI (RXF 393 renal) was greater than 100 µM. For the same compound, the TGI (NCI-H226 lung) was greater than 100 µM, the TGI (T-47D breast) was greater than 100 µM and the TGI (DU-145 prostate) was greater than 100 µM. For the same compound, the TGI (MOLT-4 leukemia) was greater than 100 µM, the TGI (KM12 colon) was greater than 100 µM and the TGI (NCI-H23 lung) was greater than 69.2 µM. For the same compound, the TGI (HCT-15 colon) was greater than 100 µM, the TGI (ACHN renal) was greater than 100 µM and the TGI (SN12C renal) was greater than 100 µM. For the same compound, the TGI (MDA-MB-435) was greater than 100 µM, the TGI (MALME-3M melanoma) was greater than 100 µM and the TGI (SK-MEL-5 melanoma) was 18 µM. The TGI (OVCAR-4 ovarian) was greater than 100 µM, the TGI (CCRF-CEM leukemia) was greater than 100 µM and the TGI (SK-MEL-2 melanoma) was greater than 100 µM. The TGI (HT29 colon) was greater than 100 µM, the TGI (HS 578T breast) was greater than 72.9 µM and the TGI (BT-549 breast) was greater than 100 µM. It also gave a TGI (HL-60(TB) leukemia) greater than 100 µM, a TGI (OVCAR-3 ovarian) greater than 100 µM and a TGI (SNB-19 CNS) greater than 100 µM. The TGI (HCT-116 colon) was greater than 100 µM, the TGI (SF-295 CNS) was greater than 86.5 µM and the TGI (HOP-92 NSCLC) was greater than 100 µM. The TGI (SR leukemia) was greater than 100 µM, the TGI (UO-31 renal) was greater than 100 µM and the TGI (SNB-75 CNS) was greater than 100 µM. For the same compound, the TGI (OVCAR-8 ovarian) was greater than 100 µM, the TGI (MCF7 breast) was greater than 100 µM and the TGI (SW-620 colon) was greater than 100 µM. The TGI (SF-539 CNS) was greater than 100 µM, the TGI (HOP-62 NSCLC) was greater than 45.7 µM and the TGI (RPMI-8226 leukemia) was greater than 100 µM. The TGI (OVCAR-5 ovarian) was greater than 100 µM, the TGI (LOX IMVI melanoma) was greater than 100 µM and the TGI (COLO 205 colon) was 18 µM. For the same compound, the TGI (NCI-H460 lung) was 31.4 µM, the TGI (MDA-MB-231 breast) was greater than 100 µM and the TGI (SK-MEL-28 melanoma) was greater than 100 µM. It also gave a TGI (M14 melanoma) greater than 100 µM, a TGI (MDA-N) greater than 100 µM and a TGI (CAKI-1 renal) greater than 100 µM. It also gave a TGI (786-0 renal) greater than 100 µM, a TGI (NCI/ADR-RES ovarian) greater than 100 µM and a TGI (A549 NSCLC) greater than 84 µM. The TGI (UACC-257 melanoma) was greater than 100 µM, the TGI (IGROV1 ovarian) was greater than 100 µM and the TGI (U251 CNS) was greater than 100 µM. It also gave a TGI (TK-10 renal) greater than 100 µM, a TGI (SK-OV-3 ovarian) greater than 100 µM and a TGI (A498 renal) greater than 100 µM. For the same compound, the TGI (UACC-62 melanoma) was greater than 100 µM.
